From ChEMBL document CHEMBL1201862, “PubChem BioAssay data set” (2004)
Active and inactive are the calls of the source.

Assays:
[1] = biological target: Long-chain-fatty-acid--AMP ligase FadD28 (Mycobacterium tuberculosis, UniProt P9WQ59); test: Fluorescence polarization aasay to screen for inhibitors that compete for the binding of FadD28 to a bisubstrate Measured in Biochemical System Using Plate Reader - 2147-01_Inhibitor_Dose_CherryPick_Activity.; assay type: functional, Mycobacterium tuberculosis H37Rv
Chain of Long-chain-fatty-acid--AMP ligase FadD28 (P9WQ59 whole entry): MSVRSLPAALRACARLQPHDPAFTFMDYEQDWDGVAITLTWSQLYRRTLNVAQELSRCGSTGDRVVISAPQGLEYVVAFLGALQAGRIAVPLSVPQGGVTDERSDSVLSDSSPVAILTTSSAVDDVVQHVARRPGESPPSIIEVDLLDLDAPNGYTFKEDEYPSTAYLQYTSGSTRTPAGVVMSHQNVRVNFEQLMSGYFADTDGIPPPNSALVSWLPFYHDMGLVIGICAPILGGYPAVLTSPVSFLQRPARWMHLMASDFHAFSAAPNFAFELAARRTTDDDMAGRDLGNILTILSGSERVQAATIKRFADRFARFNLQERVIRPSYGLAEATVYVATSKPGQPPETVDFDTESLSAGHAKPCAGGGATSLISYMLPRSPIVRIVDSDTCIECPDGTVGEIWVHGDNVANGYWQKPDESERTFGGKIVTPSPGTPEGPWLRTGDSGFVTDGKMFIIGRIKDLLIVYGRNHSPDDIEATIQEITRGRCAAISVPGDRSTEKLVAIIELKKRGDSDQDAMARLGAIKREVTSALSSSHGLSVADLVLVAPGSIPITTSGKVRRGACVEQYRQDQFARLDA

[2] = biological target: fMet-Leu-Phe receptor (Homo sapiens, UniProt P21462); test: formyl peptide receptor binders – dose response (AID 519); assay type: functional
Chain of fMet-Leu-Phe receptor (P21462 whole entry): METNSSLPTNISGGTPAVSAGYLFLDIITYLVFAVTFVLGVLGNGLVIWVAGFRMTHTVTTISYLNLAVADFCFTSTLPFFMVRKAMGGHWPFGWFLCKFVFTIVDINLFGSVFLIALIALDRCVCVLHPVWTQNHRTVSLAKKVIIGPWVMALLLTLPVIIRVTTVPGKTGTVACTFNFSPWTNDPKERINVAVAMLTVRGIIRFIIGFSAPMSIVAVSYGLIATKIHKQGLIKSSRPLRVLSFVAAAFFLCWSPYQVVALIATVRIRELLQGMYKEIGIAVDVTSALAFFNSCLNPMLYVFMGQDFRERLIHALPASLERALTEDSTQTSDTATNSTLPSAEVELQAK

[3] = general mammalian cell viability loss – inhibitor set, cherry-pick, set 2, cytotoxicity control for miR-122 modulator project, dose response (AID 720697); assay type: functional, cell-based
[4] = biological target: T1, Fatty acid synthase (Homo sapiens, UniProt P49327); test: inhibition of human FAS-TE enzyme activity – biochemical, kinetic fluorescence intensity, dose response (AID 624326); assay type: functional;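 also: rate of fluorescence rise from hydrolysis of a fluorogenic O-methyl fluorescein ester substrate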
T1 sequence (P49327 whole entry): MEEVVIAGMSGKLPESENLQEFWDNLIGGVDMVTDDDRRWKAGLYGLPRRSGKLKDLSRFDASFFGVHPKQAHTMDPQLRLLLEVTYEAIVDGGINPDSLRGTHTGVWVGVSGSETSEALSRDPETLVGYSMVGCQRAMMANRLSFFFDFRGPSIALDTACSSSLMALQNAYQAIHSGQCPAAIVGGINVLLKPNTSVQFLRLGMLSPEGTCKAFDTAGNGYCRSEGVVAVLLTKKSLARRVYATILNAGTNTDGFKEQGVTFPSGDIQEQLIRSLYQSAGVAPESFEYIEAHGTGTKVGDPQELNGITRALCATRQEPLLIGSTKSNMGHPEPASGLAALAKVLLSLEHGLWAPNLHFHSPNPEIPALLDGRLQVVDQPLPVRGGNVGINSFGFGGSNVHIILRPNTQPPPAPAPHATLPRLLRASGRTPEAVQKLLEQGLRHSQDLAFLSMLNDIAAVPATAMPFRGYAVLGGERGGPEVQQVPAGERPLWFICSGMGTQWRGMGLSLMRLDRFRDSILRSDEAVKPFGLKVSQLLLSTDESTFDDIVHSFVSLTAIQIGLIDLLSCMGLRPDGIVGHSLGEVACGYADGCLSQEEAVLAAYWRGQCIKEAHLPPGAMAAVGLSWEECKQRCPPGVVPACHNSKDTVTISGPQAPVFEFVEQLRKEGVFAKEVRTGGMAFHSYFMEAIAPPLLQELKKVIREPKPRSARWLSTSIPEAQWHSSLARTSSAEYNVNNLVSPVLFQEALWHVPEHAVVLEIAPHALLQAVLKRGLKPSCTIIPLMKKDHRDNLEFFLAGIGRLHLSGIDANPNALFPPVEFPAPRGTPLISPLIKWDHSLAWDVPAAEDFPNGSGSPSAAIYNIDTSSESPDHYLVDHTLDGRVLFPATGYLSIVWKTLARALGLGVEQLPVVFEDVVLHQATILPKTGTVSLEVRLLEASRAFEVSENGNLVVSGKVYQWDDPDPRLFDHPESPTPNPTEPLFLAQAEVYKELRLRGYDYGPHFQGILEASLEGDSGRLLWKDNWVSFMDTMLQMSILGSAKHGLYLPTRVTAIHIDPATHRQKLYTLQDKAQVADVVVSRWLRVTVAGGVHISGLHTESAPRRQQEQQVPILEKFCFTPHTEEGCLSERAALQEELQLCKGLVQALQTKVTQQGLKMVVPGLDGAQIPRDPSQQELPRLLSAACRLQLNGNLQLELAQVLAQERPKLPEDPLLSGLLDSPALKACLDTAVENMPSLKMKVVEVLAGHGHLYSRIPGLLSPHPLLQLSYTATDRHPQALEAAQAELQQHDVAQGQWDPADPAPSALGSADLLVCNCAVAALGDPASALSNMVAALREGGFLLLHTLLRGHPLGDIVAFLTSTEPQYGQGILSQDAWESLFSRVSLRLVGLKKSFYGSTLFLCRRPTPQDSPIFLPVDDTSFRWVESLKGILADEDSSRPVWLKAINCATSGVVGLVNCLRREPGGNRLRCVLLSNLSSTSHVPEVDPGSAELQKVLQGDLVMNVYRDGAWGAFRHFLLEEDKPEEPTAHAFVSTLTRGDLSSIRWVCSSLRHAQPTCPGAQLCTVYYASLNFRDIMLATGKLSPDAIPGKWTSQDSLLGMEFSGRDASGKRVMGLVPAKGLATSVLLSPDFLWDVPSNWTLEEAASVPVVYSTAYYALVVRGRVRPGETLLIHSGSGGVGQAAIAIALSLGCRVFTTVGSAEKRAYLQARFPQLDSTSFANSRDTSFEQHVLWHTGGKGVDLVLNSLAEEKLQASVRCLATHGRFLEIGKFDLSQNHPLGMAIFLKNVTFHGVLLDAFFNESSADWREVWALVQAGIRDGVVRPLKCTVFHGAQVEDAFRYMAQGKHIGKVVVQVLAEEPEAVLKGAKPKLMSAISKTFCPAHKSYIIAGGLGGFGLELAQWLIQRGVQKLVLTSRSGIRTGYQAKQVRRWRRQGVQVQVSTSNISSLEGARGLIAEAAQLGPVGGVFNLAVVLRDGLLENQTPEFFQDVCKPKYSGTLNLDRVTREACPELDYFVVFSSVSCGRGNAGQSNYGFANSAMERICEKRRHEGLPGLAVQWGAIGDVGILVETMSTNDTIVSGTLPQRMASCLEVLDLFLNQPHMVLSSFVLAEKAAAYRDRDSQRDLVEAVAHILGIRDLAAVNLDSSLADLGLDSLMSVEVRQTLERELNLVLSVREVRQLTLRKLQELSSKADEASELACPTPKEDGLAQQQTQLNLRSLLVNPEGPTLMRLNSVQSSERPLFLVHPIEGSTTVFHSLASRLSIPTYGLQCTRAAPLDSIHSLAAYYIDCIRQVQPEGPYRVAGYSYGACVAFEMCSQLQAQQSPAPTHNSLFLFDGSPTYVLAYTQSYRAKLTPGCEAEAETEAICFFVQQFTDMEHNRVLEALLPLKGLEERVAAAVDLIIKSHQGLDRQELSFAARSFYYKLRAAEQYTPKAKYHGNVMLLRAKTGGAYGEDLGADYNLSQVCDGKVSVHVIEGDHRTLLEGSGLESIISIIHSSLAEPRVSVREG

[5] = biological target: T1, Fatty acid synthase; test: inhibition of human FAS-TE enzyme activity – biochemical, endpoint fluorescence intensity, uHTS hits, dose response (AID 624327); assay type: functional;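 also: fluorescence from hydrolysis of an O-methyl fluorescein acyl ester substrate by the enzyme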
[6] = biological target: T2, Nuclear receptor subfamily 0 group B member 1 (Homo sapiens, UniProt P51843); assay type: functional, cell-based;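 also: HEK293T cells transfected with SF-1 and DAX-1 plus StAR promoter luciferase reporter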
T2 sequence (P51843 whole entry): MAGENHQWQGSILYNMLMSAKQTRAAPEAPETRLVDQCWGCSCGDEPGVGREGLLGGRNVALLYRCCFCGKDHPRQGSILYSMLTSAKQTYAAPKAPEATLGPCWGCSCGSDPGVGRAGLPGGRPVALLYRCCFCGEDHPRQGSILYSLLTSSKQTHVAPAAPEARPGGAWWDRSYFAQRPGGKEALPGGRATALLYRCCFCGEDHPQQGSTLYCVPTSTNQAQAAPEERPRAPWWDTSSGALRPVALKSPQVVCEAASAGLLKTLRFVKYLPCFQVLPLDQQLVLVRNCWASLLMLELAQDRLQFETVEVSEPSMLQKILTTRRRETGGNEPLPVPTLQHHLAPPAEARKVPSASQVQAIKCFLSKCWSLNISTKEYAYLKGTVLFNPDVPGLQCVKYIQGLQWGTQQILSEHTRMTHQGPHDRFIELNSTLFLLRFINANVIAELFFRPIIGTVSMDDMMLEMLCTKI

[7] = cells; assay type: functional, cell-based
[8] = general cell-killing toxicity readout – plate reader, dry powder samples, cytotoxicity control for PAX8 inhibitor project, dose response (AID 743021); assay type: functional, cell-based
[9] = biological target: T3, Caspase-7 (Homo sapiens, UniProt P55210); test: caspase-7 enzyme inhibition, selectivity check – biochemical, DEVD-R110 fluorescence, cherry-pick, selectivity assay for caspase-6 inhibitor project, dose response (AID 743295); assay type: functional
T3 sequence (P55210 whole entry): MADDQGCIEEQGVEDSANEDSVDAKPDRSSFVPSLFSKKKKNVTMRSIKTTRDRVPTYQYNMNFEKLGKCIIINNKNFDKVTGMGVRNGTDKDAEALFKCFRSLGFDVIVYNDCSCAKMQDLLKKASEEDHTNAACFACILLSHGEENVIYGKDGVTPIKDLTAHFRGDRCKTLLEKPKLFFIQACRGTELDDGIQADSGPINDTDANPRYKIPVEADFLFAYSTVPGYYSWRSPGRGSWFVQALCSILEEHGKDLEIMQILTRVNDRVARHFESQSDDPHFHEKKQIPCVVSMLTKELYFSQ

[10] = biological target: T4, Endoribonuclease toxin MazF (Escherichia coli K-12, UniProt P0AE70); test: activation of MazEF endoribonuclease cleavage – biochemical, fluorescence, single-stranded RNA substrate, uHTS hits, dose response (AID 588481); assay type: functional
T4 sequence (P0AE70 whole entry): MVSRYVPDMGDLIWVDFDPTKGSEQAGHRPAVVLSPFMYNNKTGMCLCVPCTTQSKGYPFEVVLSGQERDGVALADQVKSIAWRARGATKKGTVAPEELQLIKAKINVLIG

[11] = biological target: T5, Caspase-6 (Homo sapiens, UniProt P55212); test: inhibition of CASP6 peptide cleavage – biochemical, VEID-R110 fluorescence, cherry-pick, dose response (AID 720632)
T5 sequence (P55212 whole entry): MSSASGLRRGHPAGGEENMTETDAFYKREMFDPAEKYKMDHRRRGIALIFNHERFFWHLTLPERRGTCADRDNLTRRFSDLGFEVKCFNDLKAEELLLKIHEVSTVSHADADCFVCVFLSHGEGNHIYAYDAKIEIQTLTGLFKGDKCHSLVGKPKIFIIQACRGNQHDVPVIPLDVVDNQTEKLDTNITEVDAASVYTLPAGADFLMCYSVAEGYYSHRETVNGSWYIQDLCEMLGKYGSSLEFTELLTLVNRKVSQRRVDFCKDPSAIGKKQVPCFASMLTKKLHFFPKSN

[12] = biological target: T4, Endoribonuclease toxin MazF; test: substrate-only fluorescence increase artefacts – biochemical, single-stranded RNase substrate, counter-screen for MazEF activator project, dose response (AID 588502); assay type: functional
[13] = biological target: Glucose-6-phosphate 1-dehydrogenase (Homo sapiens, UniProt P11413); test: inhibition of Homo sapiens G6PD, dose series – biochemical, fluorescence, selectivity assay for P. falciparum G6PD inhibitor project, dose response (AID 504792); assay type: functional
[14] = loss of viability in HepG2 cells – cell-based, CellTiter-Glo, cherry-picked, cytotoxicity control for Shn3 inhibitor project, dose response (AID 624134); assay type: functional
[15] = reduction of Shn3 3'UTR-driven luciferase in osteoblasts – cell-based, Clone20 osteoblasts, firefly luciferase, cherry-picked, dose response (AID 624132); assay type: functional;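 also: firefly luciferase luminescence from reporter carrying the Shn3 3'UTR in osteoblasts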
[16] = biological target: 1-phosphatidylinositol 4,5-bisphosphate phosphodiesterase beta-3 (Homo sapiens, UniProt Q01970); test: Fluorescence-based biochemical high throughput dose response assay to identify inhibitors of phospholipase C isozymes (PLC-B3).
[17] = non-specific 3'UTR reporter inhibition in Clone20-Shn3RL – cell-based, Renilla luciferase, cherry-picked, counter-screen for Shn3 inhibitor project, dose response (AID 624133); assay type: functional
[18] = biological target: 1-phosphatidylinositol 4,5-bisphosphate phosphodiesterase gamma-1 (Homo sapiens, UniProt P19174); test: Counterscreen for inhibitors of phospholipase C isozymes (PLC-B3): Fluorescence-based biochemical high throughput dose response assay to identify inhibitors of phospholipase C isozymes (PLC-gamma1).
Chain of 1-phosphatidylinositol 4,5-bisphosphate phosphodiesterase gamma-1 (P19174 whole entry): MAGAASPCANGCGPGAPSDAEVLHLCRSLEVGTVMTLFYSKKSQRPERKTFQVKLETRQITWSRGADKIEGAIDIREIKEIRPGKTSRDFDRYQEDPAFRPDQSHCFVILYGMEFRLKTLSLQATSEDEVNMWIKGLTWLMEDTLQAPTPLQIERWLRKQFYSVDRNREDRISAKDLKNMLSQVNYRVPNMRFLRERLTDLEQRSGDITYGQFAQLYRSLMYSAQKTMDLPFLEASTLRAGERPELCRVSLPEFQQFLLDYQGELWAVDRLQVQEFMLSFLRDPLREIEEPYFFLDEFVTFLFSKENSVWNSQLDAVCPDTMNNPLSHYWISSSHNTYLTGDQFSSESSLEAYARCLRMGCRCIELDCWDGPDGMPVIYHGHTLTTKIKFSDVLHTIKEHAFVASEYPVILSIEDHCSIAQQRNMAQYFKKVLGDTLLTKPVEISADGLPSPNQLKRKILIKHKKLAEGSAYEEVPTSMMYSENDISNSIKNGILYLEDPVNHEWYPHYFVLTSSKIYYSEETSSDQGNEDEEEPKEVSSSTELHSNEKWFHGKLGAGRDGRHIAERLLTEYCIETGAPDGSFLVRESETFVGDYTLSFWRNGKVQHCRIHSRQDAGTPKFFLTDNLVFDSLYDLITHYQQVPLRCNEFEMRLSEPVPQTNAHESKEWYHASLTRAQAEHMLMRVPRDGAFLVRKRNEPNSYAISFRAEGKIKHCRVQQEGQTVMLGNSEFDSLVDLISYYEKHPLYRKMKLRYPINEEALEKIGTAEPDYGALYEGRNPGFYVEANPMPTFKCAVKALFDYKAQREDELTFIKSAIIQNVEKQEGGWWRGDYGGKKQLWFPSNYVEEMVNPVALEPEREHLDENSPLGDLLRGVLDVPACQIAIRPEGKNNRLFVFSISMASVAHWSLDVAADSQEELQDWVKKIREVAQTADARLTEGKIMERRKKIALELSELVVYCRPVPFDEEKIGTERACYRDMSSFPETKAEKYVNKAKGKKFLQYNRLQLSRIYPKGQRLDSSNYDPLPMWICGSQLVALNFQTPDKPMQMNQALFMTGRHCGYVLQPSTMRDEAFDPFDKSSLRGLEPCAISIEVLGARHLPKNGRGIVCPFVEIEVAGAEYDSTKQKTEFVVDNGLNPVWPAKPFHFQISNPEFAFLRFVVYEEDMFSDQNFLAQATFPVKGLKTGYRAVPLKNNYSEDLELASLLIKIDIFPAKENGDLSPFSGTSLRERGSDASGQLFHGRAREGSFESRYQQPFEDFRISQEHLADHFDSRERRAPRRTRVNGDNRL

[19] = inhibition of ADAM10 peptide cleavage – biochemical, FRET peptide substrate, recombinant human ADAM10, selectivity assay for ADAM17 exosite inhibitor project, dose response (AID 743259);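 also: ADAM10 enzyme cleaving a FRET peptide substrate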
[20] = biological target: Disintegrin and metalloproteinase domain-containing protein 17 (Homo sapiens, UniProt P78536); test: exosite inhibitors of ADAM17, dose response, biochemical (AID 743260)

O=c1c2c(O)cc(CSc3nnnn3-c3ccccc3)nc2[nH]n1-c1ccccc1
AC50 [1]: > 100 µM (inactive)

CCOc1ccc(C(=O)C2=C(O)C(=O)N(CC3CCCO3)C2c2ccc(C)o2)cc1 (configuration not stated)
Ki [2]: 21.1 µM (inactive)

CNC(=O)C[C@@H]1CC[C@@H]2[C@H](COc3ccc(NC(=O)Nc4ccc(Cl)cc4)cc3C(=O)N2C)O1
AC50 [3]: 0.415 µM (active)

O=C(CN1C(=O)S/C(=C\c2ccccc2)C1=O)Nc1cc([N+](=O)[O-])ccc1O
IC50 [4]: 1.83 µM (active) | AC50 [1]: 61.2 µM (active) | IC50 [5]: 2.94 µM (active)

COc1ccccc1C(=O)N1C[C@@H]2[C@H](c3ccccc31)[C@H](CO)N2CC1CCCC1
AC50 [3]: 9.28 µM (active)

CC1=C(C(=O)Nc2ccc(CC(=O)NCc3ccc(OC(C)C)cc3)cc2)SCCO1
IC50 [6]: > 67.5 µM (inactive) | IC50 [7]: > 67.5 µM (inactive)

Cn1c(SCC(=O)c2ccccc2)nnc1-c1ccccn1
AC50 [8]: 51 µM (active)

Cc1ccc([S+]([O-])c2ccc([N+](=O)[O-])c3nonc23)cc1 (configuration not stated)
AC50 [9]: > 70 µM (inactive) | EC50 [10]: > 99 µM (inactive) | AC50 [11]: 2.56 µM (active) | EC50 [12]: > 99 µM (inactive) | IC50 [13]: 42.3 µM (inactive)

O=C(c1cccc(S(=O)(=O)N2CCN(c3ccc(F)cc3)CC2)c1)N1CCCC(C(F)(F)F)C1 (configuration not stated)
AC50 [14]: 2.61 µM (active) | AC50 [15]: 0.942 µM (active) | IC50 [16]: > 122 µM (inactive) | AC50 [17]: 8.1 µM (active) | IC50 [18]: > 122 µM (inactive)

CCc1cc(C(=O)OC)c(NC(=O)C2CC(=O)NN2Cc2ccccc2)s1 (configuration not stated)
IC50 [19]: > 69.5 µM (inactive) | IC50 [20]: > 69.5 µM (inactive)
